Paper PMC7586344, “Discovery of Novel pERK1/2- or β-Arrestin-Preferring 5-HT1A Receptor-Biased Agonists: Diversified Therapeutic-like versus Side Effect Profile” (Journal of Medicinal Chemistry, 2020)

Experiments:
[1] = Intrinsic clearance; format: in vitro ADME; conditions: rat, rat liver microsomes, pH 7.4
[2] = target: T1, hERG channel (Homo sapiens, UniProt Q12809); test: hERG-CHO automated patch-clamp; format: cell-based
T1 construct: host or cells: CHO (hERG-CHO)

[3] = target: T2, 5-HT1B (Homo sapiens, UniProt P28222); test: Off-target binding screen; conditions: read-out: % Inhibition of Control Specific Binding; for inhibition at 1 µM: 1000 nM
T2 construct: Eurofins Pharma Discovery Services (contract screen)
T2 sequence (P28222 whole entry, species assumed): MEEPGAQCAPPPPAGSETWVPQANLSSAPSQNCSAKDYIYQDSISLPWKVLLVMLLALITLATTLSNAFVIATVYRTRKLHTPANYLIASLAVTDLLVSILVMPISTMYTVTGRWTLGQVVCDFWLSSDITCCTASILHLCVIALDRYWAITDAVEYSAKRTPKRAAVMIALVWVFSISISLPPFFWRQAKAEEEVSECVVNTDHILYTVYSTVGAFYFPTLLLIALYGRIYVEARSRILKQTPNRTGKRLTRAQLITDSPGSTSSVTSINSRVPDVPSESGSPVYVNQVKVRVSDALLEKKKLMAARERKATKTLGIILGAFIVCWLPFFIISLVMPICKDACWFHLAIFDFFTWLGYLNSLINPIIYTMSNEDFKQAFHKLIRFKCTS

[4] = target: T3, 5-HT1D (Homo sapiens, UniProt P28221); test: Off-target binding screen; conditions: read-out: % Inhibition of Control Specific Binding; for inhibition at 1 µM: 1000 nM
T3 construct: Eurofins Pharma Discovery Services (contract screen)
T3 sequence (P28221 whole entry, species assumed): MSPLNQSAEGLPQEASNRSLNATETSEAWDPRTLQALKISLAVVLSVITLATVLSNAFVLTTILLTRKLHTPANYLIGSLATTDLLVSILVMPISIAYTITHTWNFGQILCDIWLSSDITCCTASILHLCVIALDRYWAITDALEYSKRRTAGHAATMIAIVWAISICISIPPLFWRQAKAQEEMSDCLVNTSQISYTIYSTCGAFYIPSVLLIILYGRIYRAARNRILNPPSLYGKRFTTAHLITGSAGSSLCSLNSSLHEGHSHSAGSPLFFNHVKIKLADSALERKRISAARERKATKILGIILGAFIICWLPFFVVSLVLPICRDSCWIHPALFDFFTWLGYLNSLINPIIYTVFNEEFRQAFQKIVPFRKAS

[5] = target: T4, 5-HT2A (Homo sapiens, UniProt P28223); test: Off-target binding screen; conditions: 1000 nM, read-out: % Inhibition of Control Specific Binding
T4 construct: Eurofins Pharma Discovery Services (contract screen)
T4 sequence (P28223 whole entry): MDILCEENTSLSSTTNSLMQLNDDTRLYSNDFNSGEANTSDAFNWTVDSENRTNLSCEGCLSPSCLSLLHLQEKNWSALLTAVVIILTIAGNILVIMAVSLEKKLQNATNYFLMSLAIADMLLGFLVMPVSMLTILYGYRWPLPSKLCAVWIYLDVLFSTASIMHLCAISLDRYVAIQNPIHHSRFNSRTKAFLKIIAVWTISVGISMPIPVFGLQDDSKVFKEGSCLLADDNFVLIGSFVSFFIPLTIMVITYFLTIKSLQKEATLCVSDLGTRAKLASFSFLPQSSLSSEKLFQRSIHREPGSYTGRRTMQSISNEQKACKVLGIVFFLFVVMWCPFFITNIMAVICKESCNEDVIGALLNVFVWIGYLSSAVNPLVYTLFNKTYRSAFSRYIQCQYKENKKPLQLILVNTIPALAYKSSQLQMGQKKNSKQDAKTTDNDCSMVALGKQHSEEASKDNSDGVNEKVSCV

[6] = target: T5, 5-HT2C (Homo sapiens, UniProt P28335); test: Off-target binding screen; conditions: 1000 nM, read-out: % Inhibition of Control Specific Binding
T5 construct: Eurofins Pharma Discovery Services (contract screen)
T5 sequence (P28335 33-458): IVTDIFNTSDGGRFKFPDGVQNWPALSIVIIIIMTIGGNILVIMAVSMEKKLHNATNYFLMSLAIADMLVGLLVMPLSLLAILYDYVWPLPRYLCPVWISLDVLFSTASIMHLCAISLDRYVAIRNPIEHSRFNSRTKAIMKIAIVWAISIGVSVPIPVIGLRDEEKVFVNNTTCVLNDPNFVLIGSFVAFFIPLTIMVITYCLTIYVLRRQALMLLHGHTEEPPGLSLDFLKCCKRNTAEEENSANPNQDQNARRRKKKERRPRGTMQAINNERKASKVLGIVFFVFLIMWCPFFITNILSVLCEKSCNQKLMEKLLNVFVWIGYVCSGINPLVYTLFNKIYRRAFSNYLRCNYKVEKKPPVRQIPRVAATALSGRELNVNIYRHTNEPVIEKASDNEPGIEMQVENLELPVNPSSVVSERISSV

[7] = target: T6, 5-HT3 (Homo sapiens, UniProt P46098); test: Off-target binding screen; conditions: 1000 nM, read-out: % Inhibition of Control Specific Binding
T6 construct: Eurofins Pharma Discovery Services (contract screen)
T6 sequence (P46098 24-478): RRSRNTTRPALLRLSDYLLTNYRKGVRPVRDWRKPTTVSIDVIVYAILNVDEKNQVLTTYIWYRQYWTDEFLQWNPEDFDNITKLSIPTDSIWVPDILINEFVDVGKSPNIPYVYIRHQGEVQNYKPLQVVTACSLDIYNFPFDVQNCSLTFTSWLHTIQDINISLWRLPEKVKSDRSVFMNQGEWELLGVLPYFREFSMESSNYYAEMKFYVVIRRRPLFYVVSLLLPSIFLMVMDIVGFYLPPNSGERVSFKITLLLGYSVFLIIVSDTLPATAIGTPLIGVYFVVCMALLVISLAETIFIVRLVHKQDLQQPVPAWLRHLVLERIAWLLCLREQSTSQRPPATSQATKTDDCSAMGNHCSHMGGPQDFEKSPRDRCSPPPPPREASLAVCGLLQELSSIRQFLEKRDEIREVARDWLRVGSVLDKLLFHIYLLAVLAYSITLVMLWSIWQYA

[8] = target: T7, α1B (Homo sapiens, UniProt P35368); test: Off-target binding screen; conditions: read-out: % Inhibition of Control Specific Binding; for inhibition at 1 µM: 1000 nM; for inhibition at 0.01 µM: 10 nM; for inhibition at 0.1 µM: 100 nM
T7 construct: Eurofins Pharma Discovery Services (contract screen)
T7 sequence (P35368 1-520): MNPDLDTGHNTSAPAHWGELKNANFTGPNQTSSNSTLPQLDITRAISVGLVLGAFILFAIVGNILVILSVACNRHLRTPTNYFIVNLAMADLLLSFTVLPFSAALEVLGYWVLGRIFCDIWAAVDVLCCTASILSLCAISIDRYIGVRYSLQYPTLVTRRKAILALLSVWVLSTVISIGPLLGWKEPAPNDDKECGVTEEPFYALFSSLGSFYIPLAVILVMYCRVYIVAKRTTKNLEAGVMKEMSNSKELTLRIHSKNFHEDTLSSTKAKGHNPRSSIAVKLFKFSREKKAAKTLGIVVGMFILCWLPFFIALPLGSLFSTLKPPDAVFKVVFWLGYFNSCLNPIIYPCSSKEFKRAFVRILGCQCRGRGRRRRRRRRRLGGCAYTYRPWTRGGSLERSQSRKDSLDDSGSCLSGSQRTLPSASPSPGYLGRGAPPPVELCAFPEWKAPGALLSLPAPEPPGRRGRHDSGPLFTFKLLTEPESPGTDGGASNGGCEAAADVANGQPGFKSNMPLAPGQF

[9] = target: T8, α2A (Homo sapiens, UniProt P08913); test: Off-target binding screen; conditions: read-out: % Inhibition of Control Specific Binding; for inhibition at 0.01 µM: 10 nM; for inhibition at 0.1 µM: 100 nM; for inhibition at 1 µM: 1000 nM
T8 construct: Eurofins Pharma Discovery Services (contract screen)
T8 sequence (P08913 1-465): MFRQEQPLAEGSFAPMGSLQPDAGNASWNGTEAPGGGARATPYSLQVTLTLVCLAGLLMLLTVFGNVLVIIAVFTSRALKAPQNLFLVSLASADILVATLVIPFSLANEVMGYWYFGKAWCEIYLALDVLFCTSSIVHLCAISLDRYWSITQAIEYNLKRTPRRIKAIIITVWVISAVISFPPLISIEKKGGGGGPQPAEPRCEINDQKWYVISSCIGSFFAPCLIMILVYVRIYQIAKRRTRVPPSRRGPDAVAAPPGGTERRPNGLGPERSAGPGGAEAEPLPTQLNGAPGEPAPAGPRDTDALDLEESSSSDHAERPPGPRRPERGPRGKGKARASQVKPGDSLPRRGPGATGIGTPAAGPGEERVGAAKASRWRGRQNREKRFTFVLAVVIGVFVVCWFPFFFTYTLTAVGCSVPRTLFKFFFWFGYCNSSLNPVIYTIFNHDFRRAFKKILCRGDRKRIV

[10] = target: T9, β2 (Homo sapiens, UniProt P07550); test: Off-target binding screen; conditions: 1000 nM, read-out: % Inhibition of Control Specific Binding
T9 construct: Eurofins Pharma Discovery Services (contract screen)
T9 sequence (P07550 whole entry): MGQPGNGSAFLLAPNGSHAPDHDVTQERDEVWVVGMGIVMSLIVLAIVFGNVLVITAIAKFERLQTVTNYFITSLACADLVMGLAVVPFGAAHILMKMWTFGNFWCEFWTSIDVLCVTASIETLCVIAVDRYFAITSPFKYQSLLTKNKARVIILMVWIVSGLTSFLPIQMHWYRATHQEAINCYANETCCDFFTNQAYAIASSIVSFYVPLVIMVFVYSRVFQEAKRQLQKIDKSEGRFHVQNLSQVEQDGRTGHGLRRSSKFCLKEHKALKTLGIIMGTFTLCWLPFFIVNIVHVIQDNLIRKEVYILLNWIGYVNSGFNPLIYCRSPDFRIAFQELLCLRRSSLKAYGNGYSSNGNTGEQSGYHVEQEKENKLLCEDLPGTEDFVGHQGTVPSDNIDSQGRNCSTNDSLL

[11] = target: T10, H2 (Homo sapiens, UniProt P25021); test: Off-target binding screen; conditions: 1000 nM, read-out: % Inhibition of Control Specific Binding
T10 construct: Eurofins Pharma Discovery Services (contract assay)
T10 sequence (P25021 whole entry): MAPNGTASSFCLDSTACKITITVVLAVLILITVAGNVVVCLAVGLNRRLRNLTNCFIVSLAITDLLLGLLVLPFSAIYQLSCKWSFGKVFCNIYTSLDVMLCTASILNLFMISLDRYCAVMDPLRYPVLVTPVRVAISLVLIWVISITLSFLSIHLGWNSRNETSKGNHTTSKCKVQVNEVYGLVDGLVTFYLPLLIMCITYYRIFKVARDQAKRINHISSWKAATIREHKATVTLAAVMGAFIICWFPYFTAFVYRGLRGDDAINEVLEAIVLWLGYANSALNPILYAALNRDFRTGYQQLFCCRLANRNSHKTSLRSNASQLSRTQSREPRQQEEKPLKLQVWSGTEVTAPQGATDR

[12] = target: T11, µ (MOR) (Homo sapiens, UniProt P35372); test: Off-target binding screen; conditions: read-out: % Inhibition of Control Specific Binding; for inhibition at 1 µM: 1000 nM
T11 construct: Eurofins Pharma Discovery Services (contract assay)
T11 sequence (P35372 whole entry): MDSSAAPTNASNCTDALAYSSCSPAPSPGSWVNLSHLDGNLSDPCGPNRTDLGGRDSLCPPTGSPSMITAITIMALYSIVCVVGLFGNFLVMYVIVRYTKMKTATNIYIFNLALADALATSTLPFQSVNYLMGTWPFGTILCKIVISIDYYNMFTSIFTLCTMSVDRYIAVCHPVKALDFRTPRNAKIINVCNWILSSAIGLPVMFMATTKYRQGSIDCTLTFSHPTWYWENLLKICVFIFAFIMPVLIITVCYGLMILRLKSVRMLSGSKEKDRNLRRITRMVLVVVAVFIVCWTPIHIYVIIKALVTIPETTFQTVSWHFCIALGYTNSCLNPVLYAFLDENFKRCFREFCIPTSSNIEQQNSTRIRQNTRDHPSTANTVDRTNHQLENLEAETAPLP

[13] = target: T12, DAT (Homo sapiens, UniProt Q01959); test: Off-target binding screen; conditions: 1000 nM, read-out: % Inhibition of Control Specific Binding
T12 construct: Eurofins Pharma Discovery Services
T12 sequence (Q01959 whole entry, species assumed): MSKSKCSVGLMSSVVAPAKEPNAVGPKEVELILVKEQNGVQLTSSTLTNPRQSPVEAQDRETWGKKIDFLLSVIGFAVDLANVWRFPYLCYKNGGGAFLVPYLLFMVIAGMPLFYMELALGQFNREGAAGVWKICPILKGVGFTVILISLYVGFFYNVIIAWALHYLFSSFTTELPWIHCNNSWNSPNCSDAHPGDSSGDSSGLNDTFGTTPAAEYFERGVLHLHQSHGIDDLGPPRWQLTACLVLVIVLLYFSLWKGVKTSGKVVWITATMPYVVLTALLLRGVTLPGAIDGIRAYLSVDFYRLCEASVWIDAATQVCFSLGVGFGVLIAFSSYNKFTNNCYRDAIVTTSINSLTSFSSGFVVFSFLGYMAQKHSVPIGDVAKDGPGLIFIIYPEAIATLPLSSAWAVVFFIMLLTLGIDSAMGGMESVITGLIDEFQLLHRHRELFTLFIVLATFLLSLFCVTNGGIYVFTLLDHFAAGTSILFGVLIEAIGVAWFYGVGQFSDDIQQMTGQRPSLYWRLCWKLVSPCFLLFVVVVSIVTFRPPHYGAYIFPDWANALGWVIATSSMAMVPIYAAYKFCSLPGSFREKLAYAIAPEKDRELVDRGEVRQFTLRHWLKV

T1 sequence (Q12809 whole entry): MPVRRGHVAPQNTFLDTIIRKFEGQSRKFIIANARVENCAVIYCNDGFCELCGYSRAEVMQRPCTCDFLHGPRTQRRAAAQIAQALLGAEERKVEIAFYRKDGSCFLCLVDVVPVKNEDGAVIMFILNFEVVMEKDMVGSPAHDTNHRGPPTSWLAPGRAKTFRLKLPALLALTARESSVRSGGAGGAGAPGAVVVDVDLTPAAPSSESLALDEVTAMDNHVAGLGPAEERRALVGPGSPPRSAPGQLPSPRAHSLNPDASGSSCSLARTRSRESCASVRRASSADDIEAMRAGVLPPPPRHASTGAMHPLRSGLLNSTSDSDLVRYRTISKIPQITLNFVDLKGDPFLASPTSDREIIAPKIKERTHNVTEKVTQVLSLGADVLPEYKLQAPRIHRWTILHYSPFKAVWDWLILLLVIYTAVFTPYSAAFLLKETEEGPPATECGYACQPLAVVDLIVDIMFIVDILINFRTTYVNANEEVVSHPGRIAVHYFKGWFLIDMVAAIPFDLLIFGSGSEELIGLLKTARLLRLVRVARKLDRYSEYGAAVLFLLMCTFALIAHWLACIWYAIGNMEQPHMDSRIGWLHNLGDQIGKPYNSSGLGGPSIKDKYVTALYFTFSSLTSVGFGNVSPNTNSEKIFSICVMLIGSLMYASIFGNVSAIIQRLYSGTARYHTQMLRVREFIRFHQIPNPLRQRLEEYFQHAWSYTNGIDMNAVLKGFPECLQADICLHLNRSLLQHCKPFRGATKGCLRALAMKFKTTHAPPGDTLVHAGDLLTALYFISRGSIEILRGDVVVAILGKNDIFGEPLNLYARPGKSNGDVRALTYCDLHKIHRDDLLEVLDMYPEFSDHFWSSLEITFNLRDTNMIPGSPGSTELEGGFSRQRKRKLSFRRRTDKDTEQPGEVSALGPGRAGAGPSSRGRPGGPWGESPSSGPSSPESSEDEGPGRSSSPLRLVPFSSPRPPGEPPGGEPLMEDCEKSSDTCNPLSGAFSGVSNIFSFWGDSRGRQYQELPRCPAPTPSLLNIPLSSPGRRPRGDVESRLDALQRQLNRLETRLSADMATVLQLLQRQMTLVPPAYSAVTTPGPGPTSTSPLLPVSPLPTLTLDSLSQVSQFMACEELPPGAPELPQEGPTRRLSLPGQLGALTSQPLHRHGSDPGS

Structure (SMILES) | CLint scaled at […], 50 µM [1] [mL/min/kg] | % Inhibition of Tail Current in hERG-CHO ([2]; 0,1 µM) [%] | % Inhibition of Tail Current in hERG-CHO ([2]; 1 µM) [%] | % Inhibition of Tail Current in hERG-CHO ([2]; 10 µM) [%] | inhibition at 1 µM [3] [%] | inhibition at 1 µM [4] [%] | inhibition at 1 µM [5] [%] | inhibition at 1 µM [6] [%] | inhibition at 1 µM [7] [%] | inhibition at 1 µM [8] [%] | inhibition at 0.01 µM [9] [%] | inhibition at 0.1 µM [9] [%] | inhibition at 1 µM [9] [%] | inhibition at 1 µM [10] [%] | inhibition at 1 µM [11] [%] | inhibition at 1 µM [12] [%] | inhibition at 1 µM [13] [%] | inhibition at 0.01 µM [8] [%] | inhibition at 0.1 µM [8] [%] | further results
O=C(c1ccc(F)c(Cl)c1)N1CCC(F)(CNCCOc2ccccc2)CC1 [Compound 3] | 41.7 | 1.0 | 14.2 | 64.9 | -7 | 48 | 3 | -15 | -4 | 32 | -5 | 21 | 66 | 2 | -15 | 26 | -2 |  |  | 
CNc1ccccc1OCCNCC1(F)CCN(C(=O)c2ccc(F)c(Cl)c2)CC1 [Compound 44, (3-Chloro-4-fluorophenyl)(4-fluoro-4-(((2-(2-(methylamino)phenoxy)ethyl)amino)methyl)piperidin-1-yl)methanone] | 48.8 |  | 17.5 |  | 0 | 38 | -2 | -9 | -11 |  |  |  | 10 | -3 | -28 | 22 | 0 | -3 | -6 | 
O=C(c1ccc(F)c(Cl)c1)N1CCC(F)(CNCCOc2cccc3[nH]ccc23)CC1 [Compound 56, (4-(((2-((1H-Indol-4-yl)oxy)ethyl)amino)methyl)-4-fluoropiperidin-1-yl)(3-chloro-4-fluorophenyl)methanone] | 9.6 | 0.3 | 6.4 | 21.1 | 63 |  | 10 | 6 | -10 | 69 | -7 | 33 | 81 | 9 | -33 | 88 | 37 | -6 | 11 | inhibition at 0.01 µM ([3]; 10 nM): 1%; inhibition at 0.1 µM ([3]; 100 nM): 17%; inhibition at 0.001 µM ([4]; 1 nM): -14%; inhibition at 0.01 µM ([4]; 10 nM): 27%; inhibition at 0.1 µM ([4]; 100 nM): 80%; inhibition at 0.01 µM ([12]; 10 nM): 10%; inhibition at 0.1 µM ([12]; 100 nM): 58%
